Among the data in US20220356164A1, “2-AMINOSELENOPHEN COMPOUNDS WITH ANTI-DRUG RESISTANT BACTERIA ACTIVITY AND A METHOD OF PREPARING THE SAME” (ZHUHAI JINAN SELENIUM SOURCE NANOTECHNOLOGY CO., LTD., priority 2021, published 2022) are MIC values, retold here.

The structures appear in SMILES notation. Converted amounts (≈) assume the structure as drawn. Read-outs that look alike come from different tables or passages of the source.

What all share (type): cell-based
The test system of assay [1] is methicillin-resistant Staphylococcus aureus MRSA 18-596. The assay can be described thus: micro broth dilution MIC, MRSA 18-596. The source says:
(§1) Using micro broth dilution method, with ceftazidime and vancomycin as positive controls, test the minimum inhibitory concentration (MIC) of compounds 9, 11, and 14.
(§2) The experimental strains included drug-resistant gram-positive bacteria: methicillin-resistant Staphylococcus aureus MRSA 18-575, 18-596; drug-resistant gram-negative bacteria: multi-drug-resistant Pseudomonas aeruginosa MDR-PA 18-126, 18-756. The experimental strains were all donated by Huashan Hospital Affiliated to Fudan University (Fudan University Antibiotic Research Institute), and used after being identified by conventional methods.
(§3) The specific steps are as follows:
(§4) Preparation of MHB medium: Weigh 20.0 g of MHB medium, add it to 1L of distilled water, heat and boil until it is completely dissolved, divide it into conical flasks, autoclave at 121° C. for 15 minutes, and set aside.
(§5) Cultivate the experimental strains to the logarithmic growth phase: under aseptic conditions, inoculate the experimental strains into 100 mL of MHB medium, and place them in a constant temperature and humidity incubator at 37° C. for 20-22 hours for use.
(§6) Preparation of stock solution: Weigh the sample to be tested and dissolve it with 1% DMSO solution to prepare a stock solution with a concentration of 2560 μg/mL; weigh the positive control substance and dissolve it with sterile distilled water to prepare a stock solution with a concentration of 2560 μg/mL.
(§7) Bacterial suspension preparation: Under aseptic conditions, the experimental strains cultured to the logarithmic growth phase are calibrated to 0.5 McDonald's unit turbidity standard with MHB medium and diluted at a ratio of […] to prepare a concentration of 10^6 CFU/mL Bacterial suspension, spare.
(§8) Stock solution dilution and inoculation of experimental strains: under aseptic conditions, dilute the stock solution to a solution of 256 μg/mL. Take a sterile 96-well plate, add 100 μL of MHB medium to each well except for wells 1-3; add 100 μL of positive control solution to well 2 and 100 μL of compound sample solution to wells 3 and 4; Mix the sample solution in the well with the culture medium, and then pipet 100 μL to the fifth well. After mixing, pipet 100 μL to the sixth well, and then dilute to the tenth well by successive times, and then take 100 μL from the tenth well and discard it. The 11th well is a growth control without drugs; then, add 100 μL of the above-prepared bacterial suspension to each well, so that the final bacterial concentration in each well is 5×10^5 CFU/mL; at this point, the positive control concentration is 128 μg/mL, the concentration of the sample solution is 128, 64, 32, 16, 8, 4, 2, 1 μg/mL.
(§9) Incubation: Cover the 96-well plate that has been inoculated with experimental strains and place it in a constant temperature and humidity box at 37° C. for 20-22 hours.
(§10) Record the results as shown in FIGS. 1 to 10 (the holes are in order from left to right corresponding to positive, 128, 64, 32, 16, 8, 4, 2, 1, negative) and Table 1.
In general terms: In broth dilution the organism is exposed to a series of concentrations in liquid medium.

In assay [2] the test system is multi-drug-resistant Pseudomonas aeruginosa MDR-PA 18-126. The assay can be described thus: micro broth dilution MIC, MDR-PA 18-126.
Excerpt: as §1, §2, §3, §4, §5, §6, §7, §8, §9, §10

Assay [3] deals with methicillin-resistant Staphylococcus aureus MRSA 18-575. The assay can be described thus: micro broth dilution MIC, MRSA 18-575. The following applies: read-out: The minimum inhibitory concentration, MRSA 18-575.
Excerpt: as §1, §2, §3, §4, §5, §6, §7, §8, §9, §10

Assay [4] deals with multi-drug-resistant Pseudomonas aeruginosa MDR-PA 18-756. The assay can be described thus: micro broth dilution MIC, MDR-PA 18-756. The settings on record: read-out: The minimum inhibitory concentration, MDR-PA 18-756.
Excerpt: as §1, §2, §3, §4, §5, §6, §7
as §8, with “1 μg/mL. […]” for “1 μg/mL.”

Setting [5] is: MRSA, read-out: The minimum inhibitory concentration, MRSA 18-596.
The mark [6] stands for this setting: read-out: The minimum inhibitory concentration, MDR-PA 18-126.

Regarding `CC(C)(O/N=C(\C(=O)N[C@@H]1C(=O)N2C(C(=O)[O-])=C(C[n+]3ccccc3)CS[C@H]12)c1csc(N)n1)C(=O)O` [Ceftazidime, reference compound], the MIC in assay [1] (strain MRSA 18-596, MHB medium, 37° C., 20-22 hours, read-out: The minimum inhibitory concentration, MRSA 18-596) came out at 128 µg/mL (≈ 234 µM); in assay [2] (strain MDR-PA 18-126, MHB medium, 37° C., 20-22 hours, read-out: The minimum inhibitory concentration, MDR-PA 18-126), 128 µg/mL (≈ 234 µM); in assay [3] (strain MRSA 18-575, MHB medium, 37° C., 20-22 hours), 128 µg/mL (≈ 234 µM); in assay [4] (strain MDR-PA 18-756, MHB medium, 37° C., 20-22 hours), 128 µg/mL (≈ 234 µM).

For `CCCCc1c[se]c(N)c1C#N` [Compound 14], the MIC in assay [1] (setting [5]) is 64 µg/mL (≈ 282 µM); in assay [2] (setting [6]), 64 µg/mL (≈ 282 µM); in assay [3] (MRSA), 128 µg/mL (≈ 563 µM); in assay [4], > 128 µg/mL.

In the case of `CN[C@H](CC(C)C)C(=O)N[C@H]1C(=O)N[C@@H](CC(N)=O)C(=O)N[C@H]2C(=O)N[C@H]3C(=O)N[C@H](C(=O)N[C@H](C(=O)O)c4cc(O)cc(O)c4-c4cc3ccc4O)[C@H](O)c3ccc(c(Cl)c3)Oc3cc2cc(c3O[C@@H]2O[C@H](CO)[C@@H](O)[C@H](O)[C@H]2O[C@H]2C[C@](C)(N)[C@H](O)[C@H](C)O2)Oc2ccc(cc2Cl)[C@H]1O` [Vancomycin, reference compound], the MIC in assay [1] (setting [5]) and in assay [3] (MRSA) was 512 µg/mL (≈ 353 µM) each time.

Consider `N#Cc1c(N)[se]c2c1CCCC2` [Compound 9], for which the MIC is 128 µg/mL (≈ 569 µM) in assay [1] (setting [5]), > 128 µg/mL in assay [2] (setting [6]), 128 µg/mL (≈ 569 µM) in assay [3] (MRSA) and 128 µg/mL (≈ 569 µM) in assay [4].

Turning to `N#Cc1c(N)[se]c2c1CCCCC2` [Compound 11], the MIC in assay [1] (MRSA, read-out: MIC against drug-resistant gram-positive bacteria MRSA) worked out at 16 µg/mL (≈ 66.9 µM); in assay [1] (setting [5]), 16 µg/mL (≈ 66.9 µM); in assay [2] (read-out: MIC against MDR-PA), 64 µg/mL (≈ 268 µM); in assay [2] (setting [6]), 64 µg/mL (≈ 268 µM); in assay [3] (MRSA), 32 µg/mL (≈ 134 µM); in assay [4], 64 µg/mL (≈ 268 µM).
